Reference: ChEMBL document CHEMBL1143523, “Semi-synthesis and biological evaluation of analogues of UK-2A, a novel antifungal antibiotic from Streptomyces sp. 517-02” (2005)

Experiments:
Format in all cases: functional
Saccharomyces cerevisiae [1] = experiment: Zone of inhibition for Saccharomyces cerevisiae IFO 0203 at 0.025 ug/disc by conventional paper disk method
Saccharomyces cerevisiae [2] = experiment: Zone of inhibition for Saccharomyces cerevisiae IFO 0203 at 0.05 ug/disc by conventional paper disk method
Saccharomyces cerevisiae [3] = experiment: Zone of inhibition for Saccharomyces cerevisiae IFO 0203 at 0.25 ug/disc by conventional paper disk method
Saccharomyces cerevisiae [4] = experiment: Zone of inhibition for Saccharomyces cerevisiae IFO 0203 at 0.125 ug/disc by conventional paper disk method

Compound	zone of inhibition at 0.025 µg/disc (Saccharomyces cerevisiae [1]) [mm]	zone of inhibition at 0.05 µg/disc (Saccharomyces cerevisiae [2]) [mm]	zone of inhibition at 0.25 µg/disc (Saccharomyces cerevisiae [3]) [mm]	zone of inhibition at 0.125 µg/disc (Saccharomyces cerevisiae [4]) [mm]
CC(C)C(=O)O[C@H]1[C@H](C)OC(=O)[C@@H](NC(=O)c2cccc(NC=O)c2O)COC(=O)[C@@H]1Cc1ccccc1	8	12	17	16
CC(C)C(=O)O[C@H]1[C@H](C)OC(=O)[C@@H](NC(=O)c2cccnc2O)COC(=O)[C@@H]1Cc1ccccc1	0	12	17	16
COc1ccnc(C(=O)N[C@H]2COC(=O)[C@H](Cc3ccccc3)[C@@H](OC(=O)C(C)C)[C@H](C)OC2=O)c1OC	0	0	0	0
CC(C)C(=O)O[C@H]1[C@H](C)OC(=O)[C@@H](NC(=O)c2ccccc2O)COC(=O)[C@@H]1Cc1ccccc1	8	8	12	11
COc1ccc(O)c(C(=O)N[C@H]2COC(=O)[C@H](Cc3ccccc3)[C@@H](OC(=O)C(C)C)[C@H](C)OC2=O)n1	16	19	27	24
COc1ccnc(C(=O)N[C@H]2COC(=O)[C@H](Cc3ccccc3)[C@@H](OC(=O)C(C)C)[C@H](C)OC2=O)c1OC(=O)CCCCCC(=O)Oc1ccccc1	8	10	18	15
COc1ccnc(C(=O)N[C@H]2COC(=O)[C@H](Cc3ccccc3)[C@@H](OC(=O)C(C)C)[C@H](C)OC2=O)c1O	19	22	26	26
CCOC(=O)COc1c(OC)ccnc1C(=O)N[C@H]1COC(=O)[C@H](Cc2ccccc2)[C@@H](OC(=O)C(C)C)[C@H](C)OC1=O	0	0	0	0
CC(C)C(=O)O[C@H]1[C@H](C)OC(=O)[C@@H](NC(=O)c2cccc(N(C)C)c2O)COC(=O)[C@@H]1Cc1ccccc1	8	8	14	12
COc1ccnc(C(=O)N[C@H]2COC(=O)[C@H](Cc3ccc(NC=O)cc3)[C@@H](OC(=O)C(C)C)[C@H](C)OC2=O)c1O	0	0	0	0
COc1ccnc(C(=O)N[C@H]2COC(=O)[C@H](Cc3ccc(N)cc3)[C@@H](OC(=O)C(C)C)[C@H](C)OC2=O)c1O	0	0	10	8
COc1ccnc(C(=O)N[C@H]2COC(=O)[C@H](Cc3ccccc3)[C@@H](OC(=O)C(C)C)[C@H](C)OC2=O)c1OC(=O)CCCCCC(=O)O	12	16	24	21
COc1ccnc(C(=O)N[C@H]2COC(=O)[C@H](Cc3ccc(N(C)C)cc3)[C@@H](OC(=O)C(C)C)[C@H](C)OC2=O)c1O	0	11	19	15
CC(C)C(=O)O[C@H]1[C@H](C)OC(=O)[C@@H](NC(=O)c2nc3ccccc3nc2O)COC(=O)[C@@H]1Cc1ccccc1	14	18	24	20
COc1ccnc(C(=O)N[C@H]2COC(=O)[C@H](Cc3ccc([N+](=O)[O-])cc3)[C@@H](OC(=O)C(C)C)[C@H](C)OC2=O)c1O	12	15	20	18
CCCC[C@H]1C(=O)O[C@H](C)[C@H](NC(=O)c2cccc(NC=O)c2O)C(=O)O[C@@H](C)[C@@H]1OC(=O)CC(C)C [ANTIMYCIN A3]	16	18	26	19
COc1ccnc(C(=O)N[C@H]2COC(=O)[C@H](Cc3ccccc3)[C@@H](OC(=O)C(C)C)[C@H](C)OC2=O)c1OC(C)=O	10	12	18	14
